Patent publication US20250368649A1, “TETRAHYDROPYRIDOPYRIMIDINE PAN-KRAS INHIBITORS” (Mirati Therapeutics, Inc., priority 2022, published 2025)

What was measured:
HCT116 cells = assay: Inhibition of KRas-mediated phosphorylation of ERK (Cisbio HTRF pERK), HCT116 cells; format: cell-based; conditions: Homo sapiens; for inhibition at 0.1 µM: HCT-116, single point at 100 nM, 3 hrs compound incubation
ASPC1 cells = assay: Inhibition of KRas-mediated phosphorylation of ERK (Cisbio HTRF pERK), ASPC1 cells; format: cell-based; conditions: Homo sapiens, AsPC-1 cells; for IC50: ASPC1, 3 h, 3 hr compound incubation, Cisbio pERK HTRF; for inhibition at 0.1 µM: ASPC1, single point at 100 nM, 3 hrs compound incubation
KRas G12V = KRas G12V (Homo sapiens, UniProt P01116, G12V); assay: biochemical; conditions: Binding to KRas (IC50 nM) G12V, TR-FRET displacement, KRas G12V
Chain of KRas G12V (P01116 1-169 isoform P01116-2 G12V): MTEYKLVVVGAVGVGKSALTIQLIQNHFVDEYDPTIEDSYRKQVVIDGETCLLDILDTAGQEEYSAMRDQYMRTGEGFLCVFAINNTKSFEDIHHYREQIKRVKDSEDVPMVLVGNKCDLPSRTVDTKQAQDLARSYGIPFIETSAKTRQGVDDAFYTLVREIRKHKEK

H460 cells = assay: Inhibition of KRas-mediated phosphorylation of ERK (Cisbio HTRF pERK), H460 cells; format: cell-based; conditions: Homo sapiens; for inhibition at 0.1 µM: NCI-H460, single point at 100 nM, 3 hrs compound incubation
KRas G12R = KRas G12R (Homo sapiens, UniProt P01116, G12R); assay: biochemical; conditions: Binding to KRas (IC50 nM) G12R, TR-FRET displacement, KRas G12R
Chain of KRas G12R (P01116 1-169 isoform P01116-2 G12R): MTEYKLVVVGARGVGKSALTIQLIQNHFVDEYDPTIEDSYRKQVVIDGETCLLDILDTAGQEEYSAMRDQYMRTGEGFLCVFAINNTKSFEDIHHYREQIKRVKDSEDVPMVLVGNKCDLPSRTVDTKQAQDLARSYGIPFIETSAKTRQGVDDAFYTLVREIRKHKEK

H727 cells = assay: Inhibition of KRas-mediated phosphorylation of ERK (Cisbio HTRF pERK), H727 cells; format: cell-based; conditions: Homo sapiens; for IC50: NCI-H727, 3 h, 3 hr compound incubation, Cisbio pERK HTRF; for inhibition at 0.1 µM: NCI-H727, single point at 100 nM, 3 hrs compound incubation
H358 cells = assay: Inhibition of KRas-mediated phosphorylation of ERK (Cisbio HTRF pERK), H358 cells; format: cell-based; conditions: Homo sapiens; for inhibition at 0.1 µM: NCI-H358, single point at 100 nM, 3 hrs compound incubation
KRas G12D = KRas G12D (Homo sapiens, UniProt P01116, G12D); assay: biochemical; conditions: Binding to KRas (IC50 nM) G12D, TR-FRET displacement, KRas G12D
Chain of KRas G12D (P01116 1-169 isoform P01116-2 G12D): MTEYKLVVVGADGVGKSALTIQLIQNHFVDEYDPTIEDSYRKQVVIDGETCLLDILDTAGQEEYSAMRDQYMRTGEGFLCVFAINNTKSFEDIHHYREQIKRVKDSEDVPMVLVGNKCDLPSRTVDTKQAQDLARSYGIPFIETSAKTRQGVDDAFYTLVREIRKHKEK

A549 cells = assay: Inhibition of KRas-mediated phosphorylation of ERK (Cisbio HTRF pERK), A549 cells; format: cell-based; conditions: Homo sapiens; for inhibition at 0.1 µM: single point at 100 nM, 3 hrs compound incubation

Compound	IC50 (ASPC1 cells)	IC50 (KRas G12V)	IC50 (KRas G12R)	IC50 (H727 cells)	IC50 (KRas G12D)	IC50 (HCT116 cells; HCT-116, 3 h, 3 hr compound incubation, Cisbio pERK HTRF)	IC50 (H460 cells; NCI-H460, 3 h, 3 hr compound incubation, Cisbio pERK HTRF)	IC50 (H358 cells; NCI-H358, 3 h, 3 hr compound incubation, Cisbio pERK HTRF)	IC50 (A549 cells; A549, 3 h, 3 hr compound incubation, Cisbio pERK HTRF)	inhibition at 0.1 µM (HCT116 cells)	inhibition at 0.1 µM (ASPC1 cells)	inhibition at 0.1 µM (H460 cells)	inhibition at 0.1 µM (H727 cells)	inhibition at 0.1 µM (H358 cells)	inhibition at 0.1 µM (A549 cells)
CCc1c(F)ccc2cc(O)cc(N3CCc4c(nc(OC[C@@]56CCCN5C[C@H](F)C6)nc4N4CCCCC(COCC(=O)N(C)C)C4)C3)c12 (stereo partly drawn) [Example 251, 2-((1-(7-(8-ethyl-7-fluoro-3-hydroxynaphthalen-1-yl)-2-(((2R,7aS)-2-fluorohexahydro-1H-pyrrolizin-7a-yl)methoxy)-5,6,7,8-tetrahydropyrido[3,4-d]pyrimidin-4-yl)azepan-3-yl)methoxy)-N,N-dimethylacetamide]	1310 nM	5 nM	3 nM	1200 nM	7 nM	–	–	–	–	-7%	-4%	15%	3%	2%	21%
CCc1c(F)ccc2cc(O)cc(N3CCc4c(nc(OC[C@@]56CCCN5C[C@H](F)C6)nc4N4CCCCC(COC(C)C(=O)N(C)C)C4)C3)c12 (stereo partly drawn) [Example 252, 2-((1-(7-(8-ethyl-7-fluoro-3-hydroxynaphthalen-1-yl)-2-(((2R,7aS)-2-fluorohexahydro-1H-pyrrolizin-7a-yl)methoxy)-5,6,7,8-tetrahydropyrido[3,4-d]pyrimidin-4-yl)azepan-3-yl)methoxy)-N,N-dimethylpropanamide]	1950 nM	11 nM	7 nM	1740 nM	23 nM	–	–	–	–	14%	-5%	3%	0%	-7%	16%
CCc1c(F)ccc2cc(O)cc(N3CCc4c(nc(OC[C@@]56CCCN5C[C@H](F)C6)nc4N4CCCCC(C(=O)N(C)C)C4)C3)c12 (stereo partly drawn) [Example 313, 1-(7-(8-ethyl-7-fluoro-3-hydroxynaphthalen-1-yl)-2-(((2R,7aS)-2-fluorohexahydro-1H-pyrrolizin-7a-yl)methoxy)-5,6,7,8-tetrahydropyrido[3,4-d]pyrimidin-4-yl)-N,N-dimethylazepane-3-carboxamide]	2400 nM	7 nM	25 nM	747 nM	38 nM	–	–	–	–	2%	–	31%	–	8%	7%
CCc1c(F)ccc2cc(O)cc(N3CCc4c(nc(OC[C@@]56CCCN5C[C@H](F)C6)nc4N4CCCCC(C(N)=O)C4)C3)c12 (stereo partly drawn) [Example 315, 1-(7-(8-ethyl-7-fluoro-3-hydroxynaphthalen-1-yl)-2-(((2R,7aS)-2-fluorohexahydro-1H-pyrrolizin-7a-yl)methoxy)-5,6,7,8-tetrahydropyrido[3,4-d]pyrimidin-4-yl)azepane-3-carboxamide]	1300 nM	3 nM	5 nM	681 nM	9 nM	–	–	–	–	2%	–	4%	–	11%	-26%
CCc1c(F)ccc2cc(O)cc(N3CCc4c(nc(OC[C@@]56CCCN5C[C@H](F)C6)nc4N4CCCn5nc(N(C)S(=O)(=O)C(C)C)cc5C4)C3)c12 [Example 321, N-(5-(7-(8-ethyl-7-fluoro-3-hydroxynaphthalen-1-yl)-2-(((2R,7aS)-2-fluorohexahydro-1H-pyrrolizin-7a-yl)methoxy)-5,6,7,8-tetrahydropyrido[3,4-d]pyrimidin-4-yl)-5,6,7,8-tetrahydro-4H-pyrazolo[1,5-a][1,4]diazepin-2-yl)-N-methylpropane-2-sulfonamide]	1900 nM	171 nM	146 nM	1920 nM	69 nM	–	–	–	–	5%	–	16%	–	7%	14%

Stronger by IC50 (ASPC1 cells), values ahead:

IC50 (ASPC1 cells)	IC50 (KRas G12V)	IC50 (KRas G12R)	IC50 (H727 cells)	IC50 (KRas G12D)	IC50 (HCT116 cells; HCT-116, 3 h, 3 hr compound incubation, Cisbio pERK HTRF)	IC50 (H460 cells; NCI-H460, 3 h, 3 hr compound incubation, Cisbio pERK HTRF)	IC50 (H358 cells; NCI-H358, 3 h, 3 hr compound incubation, Cisbio pERK HTRF)	IC50 (A549 cells; A549, 3 h, 3 hr compound incubation, Cisbio pERK HTRF)	Compound	inhibition at 0.1 µM (HCT116 cells)	inhibition at 0.1 µM (ASPC1 cells)	inhibition at 0.1 µM (H460 cells)	inhibition at 0.1 µM (H727 cells)	inhibition at 0.1 µM (H358 cells)	inhibition at 0.1 µM (A549 cells)
999 nM	50 nM	43 nM	1690 nM	12 nM	–	–	–	–	CCc1c(F)ccc2cc(O)cc(N3CCc4c(nc(OC[C@@]56CCCN5C[C@H](F)C6)nc4N4CCCn5nc(N(C)S(C)(=O)=O)cc5C4)C3)c12 [Example 334, N-(5-(7-(8-ethyl-7-fluoro-3-hydroxynaphthalen-1-yl)-2-(((2R,7aS)-2-fluorohexahydro-1H-pyrrolizin-7a-yl)methoxy)-5,6,7,8-tetrahydropyrido[3,4-d]pyrimidin-4-yl)-5,6,7,8-tetrahydro-4H-pyrazolo[1,5-a][1,4]diazepin-2-yl)-N-methylmethanesulfonamide]	12%	–	-1%	–	2%	12%
879 nM	5 nM	6 nM	687 nM	6 nM	3140 nM	1770 nM	536 nM	1390 nM	CCc1c(F)ccc2cc(O)cc(N3CCc4c(nc(OC[C@@]56CCCN5C[C@H](F)C6)nc4N4CCCn5nc(CCCC(=O)N(C)C)cc5C4)C3)c12 [Example 316, 4-(5-(7-(8-ethyl-7-fluoro-3-hydroxynaphthalen-1-yl)-2-(((2R,7aS)-2-fluorohexahydro-1H-pyrrolizin-7a-yl)methoxy)-5,6,7,8-tetrahydropyrido[3,4-d]pyrimidin-4-yl)-5,6,7,8-tetrahydro-4H-pyrazolo[1,5-a][1,4]diazepin-2-yl)-N,N-dimethylbutanamide]	-2%	–	-20%	–	-22%	-4%
830 nM	6 nM	4 nM	1180 nM	2 nM	–	–	–	–	CCc1c(F)ccc2cc(O)cc(N3CCc4c(nc(OC[C@@]56CCCN5C[C@H](F)C6)nc4N4CCCn5nc(CNS(=O)(=O)NC)cc5C4)C3)c12 [Example 324, 7-(8-ethyl-7-fluoro-3-hydroxy-1-naphthyl)-2-(((2R,7aS)-2-fluorotetrahydro-1H-pyrrolizin-7a(5H)-yl)methoxy)-4-(2-((methylsulfamoyl)amino)methyl-7,8-dihydro-4H-pyrazolo[1,5-a][1,4]diazepin-5(6H)-yl)-6,8-dihydro-5H-pyrido[3,4-d]pyrimidine]	-1%	–	21%	–	4%	11%
803 nM	3 nM	7 nM	406 nM	10 nM	–	–	–	–	CCc1c(F)ccc2cc(O)cc(N3CCc4c(nc(OC[C@@]56CCCN5C[C@H](F)C6)nc4N4CCCCC(C(=O)NC)C4)C3)c12 (stereo partly drawn) [Example 314, 1-(7-(8-ethyl-7-fluoro-3-hydroxynaphthalen-1-yl)-2-(((2R,7aS)-2-fluorohexahydro-1H-pyrrolizin-7a-yl)methoxy)-5,6,7,8-tetrahydropyrido[3,4-d]pyrimidin-4-yl)-N-methylazepane-3-carboxamide]	4%	–	13%	–	0%	3%
779 nM	44 nM	32 nM	656 nM	29 nM	–	–	–	–	CCc1c(F)ccc2cc(O)cc(N3CCc4c(nc(OC[C@@]56CCCN5C[C@H](F)C6)nc4N4CCCn5nc(N(C)C(=O)C(C)C)cc5C4)C3)c12 [Example 335, N-(5-(7-(8-ethyl-7-fluoro-3-hydroxynaphthalen-1-yl)-2-(((2R,7aS)-2-fluorohexahydro-1H-pyrrolizin-7a-yl)methoxy)-5,6,7,8-tetrahydropyrido[3,4-d]pyrimidin-4-yl)-5,6,7,8-tetrahydro-4H-pyrazolo[1,5-a][1,4]diazepin-2-yl)-N-methylisobutyramide]	15%	–	10%	–	0%	13%
283 nM	10 nM	9 nM	763 nM	19 nM	–	–	–	–	CCc1c(F)ccc2cc(O)cc(N3CCc4c(nc(OC[C@@]56CCCN5C[C@H](F)C6)nc4N4CCCC5(C4)NC(=O)NC5=S)C3)c12 (stereo partly drawn) [Example 250, 7-(7-(8-ethyl-7-fluoro-3-hydroxynaphthalen-1-yl)-2-(((2R,7aS)-2-fluorohexahydro-1H-pyrrolizin-7a-yl)methoxy)-5,6,7,8-tetrahydropyrido[3,4-d]pyrimidin-4-yl)-4-thioxo-1,3,7-triazaspiro[4.5]decan-2-one]	26%	-2%	36%	25%	34%	36%
